The text below walks through data of ChEMBL document CHEMBL4339198, “Use of a Conformational-Switching Mechanism to Modulate Exposed Polarity: Discovery of CCR2 Antagonist BMS-741672” (ACS Med Chem Lett, 2019).

Series [1] in a line: Drug metabolism in human liver microsomes assessed as rate of disappearance at 3 uM. Format: ADME, Microsome. On the technique in general: Microsomes from liver hold many membrane-bound enzymes, among them those of drug oxidation.
The nature of series [2]: Stability in human liver microsomes assessed as parent compound remaining at 3 uM measured after 10 mins. Format: ADME, Microsome. Particulars: read-out: Stability.
The target in series [3] is T1, C-C chemokine receptor type 5 (Homo sapiens, UniProt P51681).
T1 sequence (P51681 whole entry): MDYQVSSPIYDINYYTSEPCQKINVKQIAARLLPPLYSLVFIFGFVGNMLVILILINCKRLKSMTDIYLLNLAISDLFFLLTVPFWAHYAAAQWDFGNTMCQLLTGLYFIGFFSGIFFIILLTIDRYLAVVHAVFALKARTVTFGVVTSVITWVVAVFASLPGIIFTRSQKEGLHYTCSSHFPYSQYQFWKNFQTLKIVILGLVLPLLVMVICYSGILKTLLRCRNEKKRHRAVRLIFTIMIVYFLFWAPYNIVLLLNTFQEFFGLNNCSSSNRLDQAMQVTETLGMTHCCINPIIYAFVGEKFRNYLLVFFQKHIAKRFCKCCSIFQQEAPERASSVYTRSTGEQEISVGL
Description: Antagonist activity at CCR5 (unknown origin) expressed in human HT1080 cells assessed as blockade of MIP1beta-binding to receptor
Series [4] concerns the target C-C chemokine receptor type 2 (Homo sapiens, UniProt P41597).
Description: Displacement of [125I]MCP1 from CCR2 in human PBMC measured after 30 mins
Series [5] is described as follows: Permeability of the compound at pH 7.4 by PAMPA. Format: ADME. To be noted: read-out: permeability.
The target of series [6] is T2, hERG (KCNH2) (Homo sapiens, UniProt Q12809). In words: in vitro.
T2 sequence (Q12809 whole entry): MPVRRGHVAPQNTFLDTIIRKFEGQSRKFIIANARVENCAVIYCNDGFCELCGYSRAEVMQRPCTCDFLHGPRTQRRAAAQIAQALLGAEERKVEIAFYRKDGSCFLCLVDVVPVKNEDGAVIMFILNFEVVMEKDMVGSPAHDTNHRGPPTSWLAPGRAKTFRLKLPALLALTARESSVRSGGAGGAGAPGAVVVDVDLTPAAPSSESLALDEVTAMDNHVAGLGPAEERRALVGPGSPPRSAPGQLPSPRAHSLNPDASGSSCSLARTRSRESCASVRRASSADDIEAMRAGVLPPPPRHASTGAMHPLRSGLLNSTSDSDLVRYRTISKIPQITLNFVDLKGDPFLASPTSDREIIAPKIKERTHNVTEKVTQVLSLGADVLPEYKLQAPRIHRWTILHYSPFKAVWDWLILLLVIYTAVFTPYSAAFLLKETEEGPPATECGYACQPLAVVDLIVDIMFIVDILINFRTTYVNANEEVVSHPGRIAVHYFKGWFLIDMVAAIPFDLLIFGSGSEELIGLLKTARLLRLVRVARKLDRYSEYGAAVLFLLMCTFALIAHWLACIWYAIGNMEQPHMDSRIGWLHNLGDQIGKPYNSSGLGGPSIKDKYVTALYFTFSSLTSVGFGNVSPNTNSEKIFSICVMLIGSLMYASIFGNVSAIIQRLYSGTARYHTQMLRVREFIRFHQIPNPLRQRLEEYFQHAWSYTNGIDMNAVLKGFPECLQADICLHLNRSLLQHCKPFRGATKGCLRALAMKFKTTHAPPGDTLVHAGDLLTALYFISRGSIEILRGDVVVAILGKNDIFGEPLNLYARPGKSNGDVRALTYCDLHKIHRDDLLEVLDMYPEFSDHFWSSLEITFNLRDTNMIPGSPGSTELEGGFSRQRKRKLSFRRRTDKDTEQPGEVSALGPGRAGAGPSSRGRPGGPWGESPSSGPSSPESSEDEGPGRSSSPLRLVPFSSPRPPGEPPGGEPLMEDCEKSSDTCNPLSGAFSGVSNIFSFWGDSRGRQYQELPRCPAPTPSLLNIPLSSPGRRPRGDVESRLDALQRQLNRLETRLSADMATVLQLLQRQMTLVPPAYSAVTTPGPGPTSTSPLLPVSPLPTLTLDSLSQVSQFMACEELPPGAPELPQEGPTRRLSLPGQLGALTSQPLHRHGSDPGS
Description: Inhibition of human ERG at 10 uM by manual patch-clamp assay relative to control
Series [7] is described as follows: Clearance in iv dosed mouse. The format is ADME, organism-based. Particulars: in vivo.
A short description of series [8]: Oral bioavailability in mouse. The format is ADME, organism-based. To be noted: in vivo.
Series [9] has as its target T2, hERG (KCNH2). Nature of the series: Inhibition of human ERG at 30 uM by manual patch-clamp assay relative to control.
Series [10] can be described thus: Toxicity in monkey administered as single dose. Further details: species or system Macaca mulatta. To be noted: rhesus monkey, in vivo.
Series [11] in a line: Half life in iv dosed cynomolgus monkey. To be noted: in vivo.
For the next series, the system named is Cynomolgus monkey. Nature of the series: In vivo antagonist activity at CCR2 in po dosed cynomolgus monkey assessed as inhibition of MCP1-induced chemotaxis administered once daily for three days followed by MCP1 stimulation and measured after 18 hrs. The format is functional, organism-based. To be noted: Macaca fascicularis.
The nature of series [12]: Toxicity in rat measured after 14 days. Particulars: in vivo, 336 h.
In the next series the test system is Mus musculus. In words: Protection against C57BL/6-SVJ12 mouse model of thioglycollate-induced peritonitis administered orally 1 hr prior to thioglycollate-stimulation for 48 hrs and subsequent bid dosing for 3 days following 1 hr thioglycollate-stimulation measured by Wright-Giemsa Staining based flow cytometry. Format: functional, organism-based. For orientation: Flow cytometry measures light scatter and fluorescence of single cells or particles in a stream.

Series [13] in a line: Cardiotoxicity in telemetered monkey assessed as changes in QTc interval at 30 mg/kg. Format: toxicity, organism-based, Macaca mulatta. To be noted: rhesus monkey, in vivo.
The nature of series [14]: Oral bioavailability in cynomolgus monkey. Particulars: in vivo.
Series [15] can be described thus: Half life in iv dosed rat. Particulars: in vivo.
The nature of series [16]: Toxicity in rat administered as single dose. Particulars: in vivo.
The target of series [17] is T1, C-C chemokine receptor type 5. In words: Binding affinity to CCR5 in T-cell (unknown origin).

Calls of active or inactive are those of the source.

By IC50 is commonly meant the concentration at which inhibition is half-maximal. In general, inhibition refers to the relative decrease from the control value, in per cent. As usually defined, the clearance is the volume of plasma or blood freed of the substance per unit of time. The bioavailability is dose-corrected exposure relative to a reference, in per cent. As usually defined, the half-life is the time needed for the level to fall by half in the phase considered. The Kd is the free concentration of one partner at which half of the binding sites on the other are occupied at equilibrium, for simple one-to-one binding.

Sequence of C-C chemokine receptor type 2 (P41597 whole entry): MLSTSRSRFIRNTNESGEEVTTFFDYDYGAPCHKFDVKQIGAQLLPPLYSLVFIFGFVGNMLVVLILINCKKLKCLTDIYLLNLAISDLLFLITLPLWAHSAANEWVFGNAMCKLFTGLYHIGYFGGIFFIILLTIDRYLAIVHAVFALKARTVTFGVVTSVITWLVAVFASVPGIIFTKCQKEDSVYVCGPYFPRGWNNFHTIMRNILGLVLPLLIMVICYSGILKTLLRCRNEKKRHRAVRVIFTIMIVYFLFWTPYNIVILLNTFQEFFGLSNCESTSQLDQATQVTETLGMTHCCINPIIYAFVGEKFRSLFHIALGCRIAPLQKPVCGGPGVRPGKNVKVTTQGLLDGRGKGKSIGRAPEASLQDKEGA

In the case of `CC(C)N(C)[C@@H]1CC[C@H](N2CC[C@H](NC(=O)c3cccc(C(F)(F)F)c3)C2=O)[C@H](N(C)S(C)(=O)=O)C1`, in [1], the Drug metabolism stood at 0 nmol/min. In series [2], the remaining at 10 min, 3 µM was found to be 100%. The IC50 stood at 1570 nM in [3] and 1.4 nM in [4]. In addition, the Papp in [5] worked out at 6.5 ×10⁻⁶ cm/s. Testing at 10 µM at hERG (KCNH2) [6] gave an inhibition of 7%. For the same molecule, the clearance in series [7] was 67 mL/min/kg. This molecule also returned a bioavailability in series [8] of 11%.
On to `CCC[C@@H]1C[C@H](N(C)C(C)C)CC[C@@H]1N1CC[C@H](Nc2ncnc3ccc(C(F)(F)F)cc23)C1=O`, for which, in series [1], the Drug metabolism is 0 nmol/min. Moreover, the remaining at 10 min, 3 µM in [2] amounted to 100%. The Papp in series [5] was determined as 52.9 ×10⁻⁶ cm/s.
Turning to `CC(C)N(C)[C@@H]1CC[C@H](N2CC[C@H](Nc3ncnc4ccc(C(F)(F)F)cc34)C2=O)[C@H](CS(C)(=O)=O)C1`, at hERG (KCNH2) [9], the inhibition at 30 µM turned out to be 16%. The Drug metabolism in series [1] was 0 nmol/min. In addition, the remaining at 10 min, 3 µM in series [2] was found to be 99%. The values for the IC50 in [3] and in [4] were 190 nM and 0.9 nM, respectively. The Papp in series [5] came out at 1.4 ×10⁻⁶ cm/s.
With `CC(=O)N[C@@H]1C[C@H](N(C)C(C)C)CC[C@@H]1N1CC[C@H](Nc2ncnc3ccc(C(F)(F)F)cc23)C1=O`, the Activity entry in series [10], in series [12], in [13] and in series [16] was “Non-Toxic” throughout. Moreover, the half-life in series [11] was 3.2 h; in [15] it was 5.1 h. Further, in series [1], the Drug metabolism was 0.01 nmol/min. Further, the inhibition result in the series on Cynomolgus monkey is “Active”. Moreover, the remaining at 10 min, 3 µM in series [2] worked out at 95%. Moreover, the IC50 in series [3] was 780 nM. Besides, the outcome with Mus musculus was Active. The bioavailability in series [14] amounted to 46%; in series [8] it was 28%. Besides, testing at 10 µM against hERG (KCNH2) [6] gave an inhibition of 33%. The same molecule gave a clearance in series [7] of 38 mL/min/kg. The molecule further returned a Kd in [17] of 23.6 nM.
`CC(C)N(C)[C@@H]1CC[C@H](N2CC[C@H](Nc3ncnc4ccc(C(F)(F)F)cc34)C2=O)[C@H](NS(C)(=O)=O)C1` [BMS-741672]: the Drug metabolism in [1] amounted to 0.13 nmol/min. The remaining at 10 min, 3 µM in series [2] was 58%. Also, the IC50 in series [3] came to 287 nM; in series [4] it was 0.4 nM. Further, the Papp in [5] was determined as 39.4 ×10⁻⁶ cm/s. This molecule also registered an inhibition at 10 µM against hERG (KCNH2) [6] of 74%.
In the case of `CC(C)N(C)[C@@H]1CC[C@H](N2CC[C@H](NC(=O)c3cccc(C(F)(F)F)c3)C2=O)[C@H](CS(C)(=O)=O)C1`, in [1], the Drug metabolism came out at 0 nmol/min. In series [2], the remaining at 10 min, 3 µM was 100%. Moreover, inhibition in series [3] was half-maximal at 1640 nM (IC50). In [5], the Papp came to 9.4 ×10⁻⁶ cm/s. The clearance in [7] turned out to be 70 mL/min/kg.
On to `CC(C)N(C)[C@@H]1CC[C@H](N2CC[C@H](NC(=O)c3cccc(C(F)(F)F)c3)C2=O)[C@H](NS(C)(=O)=O)C1`, for which the Drug metabolism in [1] stood at 0.05 nmol/min. Besides, the remaining at 10 min, 3 µM in [2] worked out at 85%. In addition, the IC50 worked out at 3470 nM in series [3] and 1.9 nM in [4]. Also, the Papp in [5] was 59.3 ×10⁻⁶ cm/s. Also, the clearance in series [7] came to 258 mL/min/kg. The bioavailability in series [8] was determined as 35%.
